Experiment: Total drug level on stents after ETO cycles by extraction and HPLC
Assay type: physicochemical
Settings: 5 stents with 1 ETO cycle, 5 stents with 3 ETO cycles
Description: Weighed 129 mg of ABT-578, a rapamycin derivative and 280 mg of phosphorylcholine-linked methacrylate terpolymer PC1036 and dissolved them in 10 ml of […] by shaking overnight protected from light. The solution was filtered through a 0.45 micron Teflon filter and the solution was added to the syringe reservoir of a semi-automated spray atomization gun coupled to a lathe-like device designed to hold stents, rotate them and translate them linearly in front of the spray gun. The equipment was programmed to spray enough solution in order to obtain about 10 micrograms of drug per linear mm of stent length, taking into account the losses of solution due to lack of contact with the stent as it is sprayed. After spraying, the stents were allowed to dry in air, followed by packaging them individually in glass vials sealed with an ETO permeable Tyvec membrane. The samples were sent out for ETO sterilization by one or three complete cycles.
Analysis was done of the total drug level from 5 stents that underwent 1 ETO cycle and 5 stents that underwent 3 ETO cycles using standard extraction and HPLC analysis.

## CO[C@H]1C[C@@H]2CC[C@@H](C)[C@@](O)(O2)C(=O)C(=O)N2CCCC[C@H]2C(=O)O[C@H]([C@H](C)C[C@@H]2CC[C@H](n3cnnn3)[C@H](OC)C2)CC(=O)[C@H](C)/C=C(\C)[C@@H](O)[C@@H](OC)C(=O)[C@H](C)C[C@H](C)/C=C/C=C/C=C/1C [ABT-578]
  stability of drug on stent to ETO cycles (total drug level, 3 cycles vs 1 cycle): stable to 3 ETO cycles
